Literature values as cited in patent publication US10544223B2, “Combination therapy with an anti-axl antibody-drug conjugate” (ADC THERAPEUTICS SA, priority 2017, dated 2020).

Legend:
AXL = settings: incubation of tumor cells with MEKi
DNA repair genes = settings: inhibition of AXL
advanced melanoma = settings: phase III trials, advanced melanoma patients

Row | Molecule | accumulation of AXL on the membrane of tumor cells (AXL) | efficiency of the homologous recombination repair machinery (DNA repair genes) | expression of DNA repair genes (DNA repair genes) | other results
1 | O=C(NOC[C@H](O)CO)c1ccc(F)c(F)c1Nc1ccc(I)cc1F [PD325901] | induced a strong accumulation of AXL |  |  | 
2 | Fludarabine |  |  |  | ERCC1 transcription (ERCC1 transcription): suppress ERCC1 transcription
3 | CN1CCN(Cc2ccc(Nc3ncc(Cl)c(Nc4ccccc4S(=O)(=O)N(C)C)n3)cc2)CC1 [TP0903] |  | diminish the efficiency of the homologous recombination repair machinery | decrease expression of DNA repair genes | 
4 | N#CC(=C(/N)Sc1ccccc1N)/C(C#N)=C(\N)Sc1ccccc1N [U0126] | induced a strong accumulation of AXL |  |  | 
5 | tremelimumab: anti-CTLA4 antibody |  |  |  | overall survival compared to the standard of care (temozolomide or dacarbazine) (advanced melanoma): did not significantly increase the overall survival
6 | Nc1nc(Nc2ccc3c(c2)CC[C@@H](N2CCCC2)CC3)nn1-c1cc2c(nn1)-c1ccccc1CCC2 [BGB324] |  | diminish the efficiency of the homologous recombination repair machinery | decrease expression of DNA repair genes | 
